Experimental data from patent US8299023B2, “Neuropeptide-2 receptor (Y-2R) agonists” (Hoffmann-La Roche Inc., priority 2008, dated 2012).

Key:
[1] = tested on: hypothalamic slices; details: hypothalamic slices in vitro; cited from earlier work
[2] = biological target: Y4R (Homo sapiens, UniProt P50391); experiment: Ca flux assay (FLIPR), Y4R; format: cell-based
[3] = biological target: T1, Y5R (Homo sapiens, UniProt Q15761); experiment: Ca flux assay (FLIPR), Y5R; format: cell-based; details: for Emax: read-out: Y5R FLIPR, percentage in brackets beside the EC50
T1 sequence (Q15761 1-445): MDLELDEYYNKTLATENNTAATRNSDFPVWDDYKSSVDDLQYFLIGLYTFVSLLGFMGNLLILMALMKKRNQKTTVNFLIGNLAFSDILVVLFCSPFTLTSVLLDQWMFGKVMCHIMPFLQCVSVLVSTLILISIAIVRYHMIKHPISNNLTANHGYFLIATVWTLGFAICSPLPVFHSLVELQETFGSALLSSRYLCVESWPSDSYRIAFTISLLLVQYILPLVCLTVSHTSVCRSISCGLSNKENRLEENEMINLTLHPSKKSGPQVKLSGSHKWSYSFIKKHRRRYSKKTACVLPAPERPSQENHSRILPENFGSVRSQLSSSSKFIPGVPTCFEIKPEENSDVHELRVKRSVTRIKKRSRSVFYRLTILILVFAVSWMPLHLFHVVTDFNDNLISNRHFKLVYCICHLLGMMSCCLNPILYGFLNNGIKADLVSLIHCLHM

[4] = biological target: T2, Y1R (Homo sapiens, UniProt P25929); experiment: Ca flux assay (FLIPR), Y1R; format: cell-based
T2 sequence (P25929 1-384): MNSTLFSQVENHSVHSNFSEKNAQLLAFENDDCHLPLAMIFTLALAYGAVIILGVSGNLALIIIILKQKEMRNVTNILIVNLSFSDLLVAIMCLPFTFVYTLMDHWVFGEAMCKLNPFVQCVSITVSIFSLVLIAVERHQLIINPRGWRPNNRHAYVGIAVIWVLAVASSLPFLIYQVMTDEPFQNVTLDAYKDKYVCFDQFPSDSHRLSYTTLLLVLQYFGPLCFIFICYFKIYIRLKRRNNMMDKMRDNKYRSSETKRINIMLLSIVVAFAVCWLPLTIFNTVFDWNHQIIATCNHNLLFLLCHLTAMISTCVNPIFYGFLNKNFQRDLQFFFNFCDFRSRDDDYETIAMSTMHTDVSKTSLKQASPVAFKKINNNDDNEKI

[5] = biological target: T3, human NPY2-receptors (Homo sapiens, UniProt P49146); experiment: cAMP agonist assay, Y2R; format: cell-based
T3 construct: expressed in transfected cells; host or cells: HEK293 (G418 selection in the medium)
T3 sequence (P49146 1-381): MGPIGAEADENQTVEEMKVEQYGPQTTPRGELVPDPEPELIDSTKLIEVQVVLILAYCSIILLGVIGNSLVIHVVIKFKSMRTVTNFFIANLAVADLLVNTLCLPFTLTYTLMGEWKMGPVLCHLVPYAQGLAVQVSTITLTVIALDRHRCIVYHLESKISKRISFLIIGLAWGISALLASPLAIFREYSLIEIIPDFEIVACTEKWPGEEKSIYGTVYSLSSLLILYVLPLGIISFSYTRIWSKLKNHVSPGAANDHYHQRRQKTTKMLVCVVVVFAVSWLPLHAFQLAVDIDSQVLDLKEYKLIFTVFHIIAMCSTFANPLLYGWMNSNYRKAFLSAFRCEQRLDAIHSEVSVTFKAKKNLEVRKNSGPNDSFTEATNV
Experimental: HEK293 cells expressing human NPY2-receptors were plated in a 384-well plate at a density of 9000 cells/well using a Multi-drop dispenser and the plates were grown overnight at 37° C.
The media and reagents were warmed to room temperature. Before the dilutions were prepared, the stock solution of NPY2-receptor ligands and controls in dimethyl sulphoxide (DMSO, Sigma Cat. #D2650) was allowed to warm up to 32° C. for 5-10 min.
The plating media was removed by gentle inversion of the 384-well plate on a paper towel and was replaced with incubation medium (50 μ/L well) containing various concentrations of NPY2-receptor ligands (four replicates/concentration). The plates were incubated at room temperature for 30 min. Following the 30 min treatment period, the incubation media was discarded and replaced with 50 μL/well of Assay Lysis Buffer (provided in the Tropix kit). The cells were lysed by incubating plates for 45 min @ 37° C. The lysate (20 μl) was transferred into the pre-coated antibody plates (384-well) supplied in the Tropix kit. AP conjugate (10 μL) and of anti-cAMP antibody (20 μL) was added to each well and the plates incubated on a shaker at room temperature for 1 h. The plates were washed 5 times with Wash Buffer (70 μL/well/wash) and the plates tapped dry. […] The signal in each well was measured (1 sec/well) using a Luminometer (VICTOR-V).

Chain of Y4R (P50391 whole entry): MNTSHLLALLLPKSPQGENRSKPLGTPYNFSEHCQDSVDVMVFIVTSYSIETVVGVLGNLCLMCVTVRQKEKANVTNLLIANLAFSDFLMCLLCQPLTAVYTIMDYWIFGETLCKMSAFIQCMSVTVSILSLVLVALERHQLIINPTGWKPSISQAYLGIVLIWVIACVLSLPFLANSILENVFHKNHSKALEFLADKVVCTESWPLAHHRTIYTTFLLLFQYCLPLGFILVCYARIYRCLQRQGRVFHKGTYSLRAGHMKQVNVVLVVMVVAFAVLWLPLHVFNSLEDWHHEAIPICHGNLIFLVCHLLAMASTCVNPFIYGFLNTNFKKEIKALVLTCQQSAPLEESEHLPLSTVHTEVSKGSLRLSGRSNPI

Row | SMILES | NPY release [1] | EC50 [2] [µM] | EC50 [3] [µM] | EC50 [4] [µM] | Emax [3] [%] | EC50 [5] [µM]
1 | N=C(N)NCCC[C@H](NC(=O)CC1(CC(=O)N2CCN(C3c4ccccc4NC(=O)c4ccccc43)CC2)CCCC1)C(=O)NCCn1c(=O)n(-c2ccccc2)n(-c2ccccc2)c1=O (stereo partly shown) [BIIE0246] | increases NPY release | – | – | – | – | –
2 | CC[C@H](C)[C@H](NC(C)=O)C(=O)N[C@@H](CCCCN)C(=O)NCc1ccc(-c2cccc(CC(=O)N[C@@H](CCCNC(=N)N)C(=O)N[C@@H](Cc3c[nH]cn3)C(=O)N[C@@H](Cc3ccc(O)cc3)C(=O)N[C@@H](CC(C)C)C(=O)N[C@@H](CC(N)=O)C(=O)N[C@@H](Cc3c[nH]c4ccccc34)C(=O)N[C@H](C(=O)N[C@H](C(=O)N[C@@H](CCCNC(=N)N)C(=O)N[C@@H](CCC(N)=O)C(=O)N(C)[C@@H](CCCNC(=N)N)C(=O)N[C@@H](Cc3ccc(O)cc3)C(N)=O)[C@@H](C)O)C(C)C)c2)cc1 [Example 5] | – | > 30 | > 30 | > 30 | – | –
3 | CC[C@H](C)[C@H](NC(C)=O)C(=O)N[C@@H](CCCCN)C(=O)N1CCN(c2ccc3c(ccn3CC(=O)N[C@@H](CCCNC(=N)N)C(=O)N[C@@H](Cc3c[nH]cn3)C(=O)N[C@@H](Cc3ccc(O)cc3)C(=O)N[C@@H](CC(C)C)C(=O)N[C@@H](CC(N)=O)C(=O)N[C@@H](Cc3c[nH]c4ccccc34)C(=O)N[C@H](C(=O)N[C@H](C(=O)N[C@@H](CCCNC(=N)N)C(=O)N[C@@H](CCC(N)=O)C(=O)N(C)[C@@H](CCCNC(=N)N)C(=O)N[C@@H](Cc3ccc(O)cc3)C(N)=O)[C@@H](C)O)C(C)C)c2)CC1 [Example 6] | – | > 30 | 10.7 | > 30 | – | –
4 | CC[C@H](C)[C@H](NC(C)=O)C(=O)N[C@@H](CCCCN)C(=O)N1CCCN(c2ccc3ncn(CC(=O)N[C@@H](CCCNC(=N)N)C(=O)N[C@@H](Cc4c[nH]cn4)C(=O)N[C@@H](Cc4ccc(O)cc4)C(=O)N[C@@H](CC(C)C)C(=O)N[C@@H](CC(N)=O)C(=O)N[C@@H](Cc4c[nH]c5ccccc45)C(=O)N[C@H](C(=O)N[C@H](C(=O)N[C@@H](CCCNC(=N)N)C(=O)N[C@@H](CCC(N)=O)C(=O)N(C)[C@@H](CCCNC(=N)N)C(=O)N[C@@H](Cc4ccc(O)cc4)C(N)=O)[C@@H](C)O)C(C)C)c(=O)c3c2)CC1 [Example 8] | – | > 9 | 6.03 | > 9 | – | –
5 | CC[C@H](C)[C@H](NC(C)=O)C(=O)N[C@@H](CCCCN)C(=O)N1CCN(c2nc3ncn(CC(=O)N[C@@H](CCCNC(=N)N)C(=O)N[C@@H](Cc4c[nH]cn4)C(=O)N[C@@H](Cc4ccc(O)cc4)C(=O)N[C@@H](CC(C)C)C(=O)N[C@@H](CC(N)=O)C(=O)N[C@@H](Cc4c[nH]c5ccccc45)C(=O)N[C@H](C(=O)N[C@H](C(=O)N[C@@H](CCCNC(=N)N)C(=O)N[C@@H](CCC(N)=O)C(=O)N(C)[C@@H](CCCNC(=N)N)C(=O)N[C@@H](Cc4ccc(O)cc4)C(N)=O)[C@@H](C)O)C(C)C)c3c(=O)[nH]2)CC1 [Example 9] | – | > 9 | > 9 | > 9 | – | –
6 | CC[C@H](C)[C@H](NC(C)=O)C(=O)N[C@@H](CCCCN)C(=O)N1CCN(c2ncc3c(ncn3CC(=O)N[C@@H](CCCNC(=N)N)C(=O)N[C@@H](Cc3c[nH]cn3)C(=O)N[C@@H](Cc3ccc(O)cc3)C(=O)N[C@@H](CC(C)C)C(=O)N[C@@H](CC(N)=O)C(=O)N[C@@H](Cc3c[nH]c4ccccc34)C(=O)N[C@H](C(=O)N[C@H](C(=O)N[C@@H](CCCNC(=N)N)C(=O)N[C@@H](CCC(N)=O)C(=O)N(C)[C@@H](CCCNC(=N)N)C(=O)N[C@@H](Cc3ccc(O)cc3)C(N)=O)[C@@H](C)O)C(C)C)n2)CC1 [Example 10] | – | > 5 | 1.1 | > 5 | 48 | –
7 | CC[C@H](C)[C@H](NC(C)=O)C(=O)N[C@@H](CCCCN)C(=O)N1CCN(c2nc(N)c3c(ncn3CC(=O)N[C@@H](CCCNC(=N)N)C(=O)N[C@@H](Cc3c[nH]cn3)C(=O)N[C@@H](Cc3ccc(O)cc3)C(=O)N[C@@H](CC(C)C)C(=O)N[C@@H](CC(N)=O)C(=O)N[C@@H](Cc3c[nH]c4ccccc34)C(=O)N[C@H](C(=O)N[C@H](C(=O)N[C@@H](CCCNC(=N)N)C(=O)N[C@@H](CCC(N)=O)C(=O)N(C)[C@@H](CCCNC(=N)N)C(=O)N[C@@H](Cc3ccc(O)cc3)C(N)=O)[C@@H](C)O)C(C)C)n2)CC1 [Example 11] | – | > 5 | 3.3 | > 5 | 39 | 0.00018
8 | CC[C@H](C)[C@H](NC(C)=O)C(=O)N[C@@H](CCCCN)C(=O)N1CC2CC1CC2c1ccc2ncn(CC(=O)N[C@@H](CCCNC(=N)N)C(=O)N[C@@H](Cc3c[nH]cn3)C(=O)N[C@@H](Cc3ccc(O)cc3)C(=O)N[C@@H](CC(C)C)C(=O)N[C@@H](CC(N)=O)C(=O)N[C@@H](Cc3c[nH]c4ccccc34)C(=O)N[C@H](C(=O)N[C@H](C(=O)N[C@@H](CCCNC(=N)N)C(=O)N[C@@H](CCC(N)=O)C(=O)N(C)[C@@H](CCCNC(=N)N)C(=O)N[C@@H](Cc3ccc(O)cc3)C(N)=O)[C@@H](C)O)C(C)C)c(=O)c2c1 (stereo partly shown) [Example 12] | – | > 5 | 2.87 | > 5 | 43 | –
9 | CC[C@H](C)[C@H](NC(C)=O)C(=O)N[C@@H](CCCCN)C(=O)N1CCN(c2ccc3ccn(CC(=O)N[C@@H](CCCNC(=N)N)C(=O)N[C@@H](Cc4c[nH]cn4)C(=O)N[C@@H](Cc4ccc(O)cc4)C(=O)N[C@@H](CC(C)C)C(=O)N[C@@H](CC(N)=O)C(=O)N[C@@H](Cc4c[nH]c5ccccc45)C(=O)N[C@H](C(=O)N[C@H](C(=O)N[C@@H](CCCNC(=N)N)C(=O)N[C@@H](CCC(N)=O)C(=O)N(C)[C@@H](CCCNC(=N)N)C(=O)N[C@@H](Cc4ccc(O)cc4)C(N)=O)[C@@H](C)O)C(C)C)c(=O)c3c2)CC1 [Example 13] | – | > 5 | 2.34 | > 5 | 49 | 0.00018
